Values of other authors in US8921361B2, “Triazine, pyrimidine and pyridine analogs and their use as therapeutic agents and diagnostic probes” (University of Basel, priority 2008, dated 2014).

Test system: human cancer xenografts

## FC(F)c1nc2ccccc2n1-c1nc(N2CCOCC2)nc(N2CCOCC2)n1 [ZSTK474]
mouse, in vivo, po
  toxicity in xenograft mice: without evidence of critical toxicity
Orally administered, Yaguchi et al. 2006
  antitumor activity against human cancer xenografts in mice: potent antitumor activity
